In patent publication US20240009314A1, “COMPOSITIONS AND METHODS FOR TARGETING TUMOR-ASSOCIATED MACROPHAGES” (Resolute Science, priority 2020, published 2024):

Tests used:
MC38 tumor cells = test: Anti-tumor activity in MC38 colon cancer mouse model; format: in vivo; conditions: 40 mg/kg intraperitoneally q3 days×4
Description: Specifically, 8- to 12-week-old C57BL/6 female mice (Charles River Laboratories) were inoculated with 5×10^5 MC38 tumor cells in 0% Matrigel subcutaneously in the flank in a volume of 0.1 mL/mouse on Study Day 0. A pair match was performed when the tumors reached an average size of 80-120 mm 3 at which time treatment began.
The dosing volume was adjusted for body weight. Gemcitabine was administered at a dosage of 40 mg/kg and delivered intraperitoneally q3 days×4. Tumor was measured by calipers twice a week. Body weight was measured every day for 5 days and then bi-weekly to the end of the study. (n=10/group). The endpoint of study was when tumor volume reached 1500 mm^3.

GL261 cells = test: Anti-tumor activity in immunocompetent GL261 glioma mouse model; format: in vivo
Description: The anti-tumor activity of Target-5 was assessed in vivo using an immunocompetent glioma mouse model. Three distinct doses of Target-5 were evaluated against Temozolomide, an FDA-approved chemotherapeutic agent, and a vehicle control in C57BL/6 mice.
Specifically, female C57BL/6 mice (Jackson Laboratories) were inoculated with 5×10^6 GL261 cells (mycoplasma tested-negative) with 96% viability and 100% tumor take rate (cell passages prior to plating (#7)).
Target-5 was formulated in 0.9% saline and the mice were treated twice a week with either 5 mg/kg, 7.5 mg/kg, or 10 mg/kg Target-5 by tail vein injection. The dosing volume was adjusted for body weight. Temozolomide was formulated in 10% DMSO in 0.9% sodium chloride and mice were treated twice a week by gavage at a dosage of 12.5 mg/kg. n=10 for each group.

| SMILES | tumor volume compared to Target-5 groups (MC38 tumor cells) | change in body weight (GL261 cells; any treatment group, FIG. 8C) | Mean tumor volume (GL261 cells; day 21, 12.5 mg/kg twice a week by gavage) |
| --- | --- | --- | --- |
| Nc1ccn([C@@H]2O[C@H](CO)[C@@H](O)C2(F)F)c(=O)n1 [Gemcitabine] | appeared to reduce tumor volume more |  |  |
| Cn1nnc2c(C(N)=O)ncn2c1=O [temozolomide] |  | no significant change | 302.6 mm^3 |
